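Step 1: Grow cells in 96-well plates. Step 2: Expose to compound for 48 hours at 5 concentrations. Step 3: Interpolate endpoints linearly; if unreached, use highest concentration. TGI denotes the concentration required for complete inhibition of growth.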 Where a SMILES comes first, the peptide text is derived from it. [ ]: non-standard residue; d: D form. The star is where a group is joined. ξ: configuration not given here. NMeY = CN[C@@H](Cc1ccc(O)cc1)C(=O)O; Cbz = O=C(OCc1ccccc1)*; ξA = CC(N)C(=O)O
Legend:
Test in all cases: inhibition of tumour cell growth, NCI panel, 48 h
[1] = test system: COLO 205 colon
[2] = test system: HT29 colon
[3] = test system: OVCAR-8 ovarian
[4] = test system: HCC-2998 colon
[5] = test system: 786-0 renal
[6] = test system: SN12C renal
[7] = test system: SR leukemia
[8] = test system: SF-295 CNS
[9] = test system: ACHN renal
[10] = test system: HOP-62 NSCLC
[11] = test system: SK-MEL-2 melanoma

Row | Compound | TGI [1] [µM] | TGI [2] [µM] | TGI [3] [µM] | TGI [4] [µM] | TGI [5] [µM] | TGI [6] [µM] | TGI [7] [µM] | TGI [8] [µM] | TGI [9] [µM] | TGI [10] [µM] | TGI [11] [µM]
1 | CCOC(=O)/C(C1=NCCN1C)=C(\O)c1ccccc1 | > 100 | > 100 | > 100 | > 100 | > 100 | > 100 | > 100 | > 100 | > 100 | > 100 | > 100
2 | CC/C(Cl)=N\OC(=O)Nc1ccc(F)c(Cl)c1 | 8.16 | 55.2 | 36.8 | 35.3 | 18 | 40.2 | 13.1 | 33.1 | 26.7 | 34.3 | 33.5
3 | COc1ccc(C[C@@H](C(=O)N[C@@H](C)C(N)=O)N(C)C(=O)[C@@H]2CCCN2C(=O)[C@H](CC(C)C)NC(=O)C(C)NC(=O)OCc2ccccc2)cc1 (stereo partly drawn) (Cbz-[ξA]LP[NMeY](Me)A-NH2) | > 100 | > 100 | > 100 | > 100 | > 100 | > 100 | > 100 | > 100 | > 100 | > 100 | > 100
4 | CNC(=O)O/N=C1\N(C)CN(c2ccccc2)C12CCN(CCCC(=O)c1ccc(F)cc1)CC2 | 33.2 | > 100 | > 100 | > 100 | > 100 | > 100 | > 100 | > 100 | > 100 | > 100 | > 100
5 | Cc1c2c(n3c(nc4ccccc43)c1C#N)N(c1ccc(F)cc1)CC2 | > 100 | > 100 | > 100 | > 100 | > 100 | > 100 | > 100 | > 100 | > 100 | > 100 | > 100
6 | COc1cccc(CCn2c(N)c(-c3cc(Cl)cc(Cl)c3)c3ccc([N+](=O)[O-])cc3c2=O)c1 | 4.05 | > 100 | > 100 | > 31.6 | > 100 | > 86.7 | > 64.8 | > 100 | 22.5 | > 100 | > 31.4
7 | COc1ccc(C[C@H]2COC(=O)[C@@H]2Cc2ccc(Br)cc2)cc1OC | 39.5 | > 100 | > 100 | > 100 | > 100 | > 100 | > 94 | > 74.3 | > 100 | > 100 | 51.8
8 | Cc1ccc(S(=O)(=O)c2ccc(C)cc2[N+](=O)[O-])c([N+](=O)[O-])c1 | > 100 | > 100 | > 100 | > 100 | > 100 | > 100 | > 100 | > 100 | > 100 | > 100 | > 100
9 | c1ccc2cc(C3NCCc4[nH]cnc43)ccc2c1 (stereo not drawn) | 62.5 | > 100 | > 100 | > 100 | > 100 | > 100 | > 100 | > 100 | > 100 | > 100 | > 100
10 | COC(=O)C(=O)C(C(=O)OC)C(=O)C(=O)Nc1cc(Cl)c(C)cc1S(=O)(=O)O (stereo not drawn) | > 100 | > 100 | > 100 | > 100 | > 100 | > 100 | > 100 | > 100 | > 100 | > 100 | > 100
11 | O=C(O)C12C3CCC(C3)C1(C(=O)O)C1CCC2C1 (stereo not drawn) | > 100 | > 100 | > 100 | > 100 | > 100 | > 100 | > 100 | > 100 | > 100 | > 100 | > 100
12 | COc1ccc2nc3ccc(OC)cc3c(S(=O)Cc3ccccc3)c2c1 (stereo not drawn) | 25.9 | 10.6 | 12.7 | 38.4 | 4.78 | 21.3 | > 29.8 | 35.4 | 15.2 | 33.4 | 33
13 | COc1cc(-c2nc(N)c(C#N)c3c2CCS(=O)(=O)c2ccc(C)cc2-3)cc(OC)c1OC | > 100 | > 100 | 26.9 | > 100 | > 100 | > 100 | > 100 |  | > 100 | > 100 | > 100
14 | Cc1ccccc1N(CCC#N)C1=NN(C(=O)CC(=O)Nc2ccc(Cl)cc2)C(c2ccccc2)C1 (stereo not drawn) | > 100 | > 100 | > 100 | > 100 | > 100 | > 100 | > 100 | > 100 | > 100 | > 100 | > 100
15 | O=C1C(Cl)C(c2ccc(O)cc2)N1n1cnc2ccccc2c1=O (stereo not drawn) | 58.4 | > 68.8 | 26 | > 100 | > 100 | > 100 | 69.8 | > 100 | 25.6 | > 100 | > 63.8
16 | CC(C)(C)OC(=O)N(O)CCCn1cnc2c(NC3CC3)ncnc21 | > 100 | > 100 | > 100 | > 100 | > 100 | > 100 | > 100 | > 100 | > 100 | > 100 | > 100
17 | COC(=O)c1cc(/C=C/C(=O)Cc2ccccc2)cn1S(=O)(=O)c1ccccc1 | > 100 | > 100 | > 100 | > 100 | > 100 | > 100 | > 100 | > 100 | > 100 | > 100 | > 100
18 | C=CC(C)(C)NC(C(=O)N1CCC[C@H]1c1nc(-c2nc(C(=O)OCC=C(C)C)c(C)o2)c(C)o1)C(C)C (stereo partly drawn) | > 100 | > 86.8 | > 100 | > 100 | > 100 | > 72.2 | > 100 | > 74.8 | > 68.1 | > 100 | > 73.4
19 | O=C1c2ccccc2C(=O)c2c1oc1cc(O)c(Cl)cc21 | 3.27 | 3.89 | 23.4 | 14.8 | 20.9 | 22.5 | > 54.6 | 9.46 | 17 | 21.7 | 7.16
